Measurements as given in patent US20060134008A1, “Compositions and methods for pulmonary conditions” (priority 2004, published 2006).

Columns and labels:
[1] = in average [70-kg] adult; cited from earlier work
guinea pigs [2] = experiment: Methacholine-induced bronchoconstriction (PenH), methacholine 20-30 minutes after isoflurane anesthesia and airway instillation; details: for block of methacholine and lidocaine induced bronchoconstriction (PenH): instilled with lidocaine, methacholine within 20-30 minutes of terminating anesthesia, FIG. 4; for PenH after methacholine by nebulization: methacholine 20-30 minutes following treatment, 200-300 μL instilled
Experimental: Guinea pigs were anesthetized with isoflurane and one of the following treatments instilled into the airway using a Penn Century device designed for liquid instillation: a) saline; b) lidocaine; c) IpBr or d) lidocaine and IpBr. The volume of liquid instilled was between 200-300 μL for each treatment group. Between 20 and 30 minutes following treatment all animals received methacholine by nebulization.

guinea pigs [3] = experiment: Methacholine-induced bronchoconstriction (PenH), methacholine approximately 10-15 minutes after isoflurane anesthesia and treatment; details: FIG. 5
Experimental: A second study was conducted to evaluate the ability of IpBr and epinephrine to reduce lidocaine/methacholine induced bronchoconstriction earlier relative to the termination of isoflurane. […] Guinea pigs were anesthetized with isoflurane and treated with: a) saline; b) lidocaine; c) lidocaine plus epinephrine; or d) lidocaine plus IpBr. Approximately 10-15 minutes later each guinea pig was exposed to methacholine by nebulization.

[4] = test system: guinea pigs immunized against ovalbumin
[5] = given with lidocaine, methacholine approximately 10-15 minutes later

SMILES | Maximum one-time dose (volume) [1] | block of methacholine and lidocaine induced bronchoconstriction (PenH) (guinea pigs [2]) | PenH after methacholine by nebulization (guinea pigs [2]; FIG. 3) | effect on PenH (in words) (guinea pigs [3]; [5]) | also measured
CCCCN1CCCCC1C(=O)Nc1c(C)cccc1C (stereo not shown) [Bupivacaine] | (50 mL in average [70-kg] adult) |  |  |  | 
CC(C)[N+]1(C)[C@@H]2CC[C@H]1CC(OC(=O)C(CO)c1ccccc1)C2.[Br-] (stereo partly shown) [IpBr, ipratropium bromide] |  | blocks methacholine-induced bronchoconstriction out to 30 minutes of treatment | effective in blocking methacholine induced bronchoconstriction | greatly reduce PenH back to baseline levels | reduction of PenH relative to animals receiving only lidocaine (guinea pigs [3]; [5]): approximately 90%; effect of concomitant administration on lidocaine-induced increase in PenH ([4]; co-administered with lidocaine, FIG. 2, PenH similar to saline only): blocked the effect of lidocaine on PenH
CCN(CC)CC(=O)Nc1c(C)cccc1C [Lidocaine, lidocaine] | (30 mL in average [70-kg] adult) | no differences in PenH | increase PenH relative to guinea pigs receiving only saline |  | effect on the bronchoconstrictive action of methacholine (guinea pigs [2]; 15 and 30 minutes following termination of isoflurane anesthesia): enhanced the bronchoconstrictive action of methacholine; PenH relative to baseline (guinea pigs [3]; methacholine approximately 10-15 minutes after treatment): increase in PenH over baseline; magnitude of the lidocaine-induced PenH increase ([4]; 1.25 or 2.5 mg instilled, FIG. 1): dose-dependent
Cc1cccc(C)c1NC(=O)C1CCCCN1C (stereo not shown) [Mepivacaine] | (30 mL in average [70-kg] adult) |  |  |  | 
CNC[C@H](O)c1ccc(O)c(O)c1 [epinephrine] |  | but not epinephrine, blocks methacholine-induced bronchoconstriction |  | reduced PenH to levels similar to those observed in saline treated animals | 
FC(F)OC(Cl)C(F)(F)F (stereo not shown) [isoflurane] |  |  |  |  | time for which the bronchoconstrictive effects of methacholine are reduced (guinea pigs [2]; inhaled anesthetic, FIG. 3): 20 to 30 min
